Measurements published in ChEMBL document CHEMBL4602640, “Licochalcone A suppresses the proliferation of sarcoma HT-1080 cells, as a selective R132C mutant IDH1 inhibitor” (Bioorg Med Chem Lett, 2020).
Calls of active or inactive are those of the source. The rule behind the calls is not given here.

Tests used:
[1] = molecular target: T1, Isocitrate dehydrogenase [NADP] cytoplasmic (Homo sapiens, UniProt O75874); test: Inhibition of IDH1 (unknown origin) at 30 uM by enzymatic assay
[2] = tested on: Isocitrate dehydrogenase [NADP] cytoplasmic (Homo sapiens), O75874 [R132C]; test: Inhibition of IDH1 R132C mutant (unknown origin) at 30 uM by enzymatic assay
Homo sapiens = species: Homo sapiens; test: Ratio of inhibition of IDH1 R132C mutant (unknown origin) at 30 uM to inhibition of IDH1 (unknown origin) at 30 uM by enzymatic assay
[3] = molecular target: T1, Isocitrate dehydrogenase [NADP] cytoplasmic; test: Binding affinity to IDH1 (unknown origin) by surface plasmon resonance assay
[4] = molecular target: T2, Isocitrate dehydrogenase [NADP] cytoplasmic (Homo sapiens, UniProt O75874, R132C); test: Binding affinity to IDH1 R132C mutant (unknown origin) by surface plasmon resonance assay
[5] = molecular target: T3, Isocitrate dehydrogenase [NADP] cytoplasmic (Homo sapiens, UniProt O75874, R132H); test: Binding affinity to IDH1 R132H mutant (unknown origin) by surface plasmon resonance assay
[6] = tested on: Isocitrate dehydrogenase [NADP] cytoplasmic (Homo sapiens), O75874 [R132C]; test: Binding affinity to IDH1 R132C mutant (unknown origin) by mass spectrometry
[7] = tested on: Isocitrate dehydrogenase [NADP] cytoplasmic (Homo sapiens), O75874 [R132H]; test: Binding affinity to IDH1 R132H mutant (unknown origin) by mass spectrometry
[8] = molecular target: T1, Isocitrate dehydrogenase [NADP] cytoplasmic; test: Inhibition of IDH1 (unknown origin) by enzymatic assay
[9] = molecular target: T2, Isocitrate dehydrogenase [NADP] cytoplasmic; test: Inhibition of IDH1 R132C mutant (unknown origin) by enzymatic assay
[10] = molecular target: T3, Isocitrate dehydrogenase [NADP] cytoplasmic; test: Inhibition of IDH1 R132H mutant (unknown origin) by enzymatic assay
HT-1080 [11] = test: Antiproliferative activity against human HT1080 cells harboring IDH1-R132C mutation incubated for 48 hrs; format: functional, cell-based
[12] = Cytotoxicity against human RCTEC incubated for 48 hrs
U-87 MG = test: Cytotoxicity against human U87MG cells harboring wild type IDH1 incubated for 48 hrs; format: functional, cell-based, U-87MG ATCC
HT-1080 [13] = test: Reduction in 2 HG level in human HT1080 cells harboring IDH1-R132C mutation incubated for 48 hrs by LC-MS analysis relative to control; format: functional
HT-1080 [14] = test: Reduction in CDK1 mRNA level in human HT1080 cells incubated for 48 hrs by qRT-PCR analysis; format: functional, cell-based
HT-1080 [15] = test: Reduction in CDK2 mRNA level in human HT1080 cells incubated for 48 hrs by qRT-PCR analysis; format: functional, cell-based
HT-1080 [16] = test: Reduction in CDK1 protein expression in human HT1080 cells incubated for 48 hrs by Western blot analysis; format: functional, cell-based
HT-1080 [17] = test: Reduction in CDK2 protein expression in human HT1080 cells incubated for 48 hrs by Western blot analysis; format: functional, cell-based
HT-1080 [18] = test: Reduction in ACO1 […] expression in human HT1080 cells by RNA-Seq data analysis; format: functional, cell-based
HT-1080 [19] = test: Reduction in PDHB […] expression in human HT1080 cells by RNA-Seq data analysis; format: functional, cell-based
HT-1080 [20] = test: Induction of cell cycle arrest in human HT1080 cells assessed accumulation at G1 phase at 5 uM incubated for 24 hrs by flow cytometric analysis (reference value: 31.67%); format: functional
HT-1080 [21] = test: Induction of cell cycle arrest in human HT1080 cells assessed accumulation at S phase at 5 uM incubated for 24 hrs by flow cytometric analysis (reference value: 52.69%); format: functional
HT-1080 [22] = test: Induction of cell cycle arrest in human HT1080 cells assessed accumulation at G2 phase at 5 uM incubated for 24 hrs by flow cytometric analysis (reference value: 15.64%); format: functional
HT-1080 [23] = test: Induction of cell cycle arrest in human HT1080 cells assessed accumulation at G1 phase at 10 uM incubated for 24 hrs by flow cytometric analysis (reference value: 31.67%); format: functional
HT-1080 [24] = test: Induction of cell cycle arrest in human HT1080 cells assessed accumulation at S phase at 10 uM incubated for 24 hrs by flow cytometric analysis (reference value: 52.69%); format: functional
HT-1080 [25] = test: Induction of cell cycle arrest in human HT1080 cells assessed accumulation at G2 phase at 10 uM incubated for 24 hrs by flow cytometric analysis (reference value: 15.64%); format: functional
HT-1080 [26] = test: Induction of cell cycle arrest in human HT1080 cells assessed accumulation at G1 phase at 20 uM incubated for 24 hrs by flow cytometric analysis (reference value: 31.67%); format: functional
HT-1080 [27] = test: Induction of cell cycle arrest in human HT1080 cells assessed accumulation at S phase at 20 uM incubated for 24 hrs by flow cytometric analysis (reference value: 52.69%); format: functional
HT-1080 [28] = test: Induction of cell cycle arrest in human HT1080 cells assessed accumulation at G2 phase at 20 uM incubated for 24 hrs by flow cytometric analysis (reference value: 15.64%); format: functional
HT-1080 [29] = test: Induction of apoptosis in human HT1080 cells assessed as viable cells at 5 uM incubated for 48 hrs by flow cytometric analysis (reference value: 95.9%); format: functional; settings: HT-1080, 48 h, read-out: Activity
HT-1080 [30] = test: Induction of apoptosis in human HT1080 cells assessed as early apoptotic cells at 5 uM incubated for 48 hrs by flow cytometric analysis (reference value: 0.63%); format: functional
HT-1080 [31] = test: Induction of apoptosis in human HT1080 cells assessed as late apoptotic cells at 5 uM incubated for 48 hrs by flow cytometric analysis (reference value: 2.48%); format: functional
HT-1080 [32] = test: Induction of apoptosis in human HT1080 cells assessed as necrotic cells at 5 uM incubated for 48 hrs by flow cytometric analysis (reference value: 0.95%); format: functional
HT-1080 [33] = test: Induction of apoptosis in human HT1080 cells assessed as viable cells at 10 uM incubated for 48 hrs by flow cytometric analysis (reference value: 95.9%); format: functional; settings: HT-1080, 48 h, read-out: Activity
HT-1080 [34] = test: Induction of apoptosis in human HT1080 cells assessed as early apoptotic cells at 10 uM incubated for 48 hrs by flow cytometric analysis (reference value: 0.63%); format: functional
HT-1080 [35] = test: Induction of apoptosis in human HT1080 cells assessed as late apoptotic cells at 10 uM incubated for 48 hrs by flow cytometric analysis (reference value: 2.48%); format: functional
HT-1080 [36] = test: Induction of apoptosis in human HT1080 cells assessed as necrotic cells at 10 uM incubated for 48 hrs by flow cytometric analysis (reference value: 0.95%); format: functional
HT-1080 [37] = test: Induction of apoptosis in human HT1080 cells assessed as viable cells at 20 uM incubated for 48 hrs by flow cytometric analysis (reference value: 95.9%); format: functional; settings: HT-1080, 48 h, read-out: Activity
HT-1080 [38] = test: Induction of apoptosis in human HT1080 cells assessed as early apoptotic cells at 20 uM incubated for 48 hrs by flow cytometric analysis (reference value: 0.63%); format: functional
HT-1080 [39] = test: Induction of apoptosis in human HT1080 cells assessed as late apoptotic cells at 20 uM incubated for 48 hrs by flow cytometric analysis (reference value: 2.48%); format: functional
HT-1080 [40] = test: Induction of apoptosis in human HT1080 cells assessed as necrotic cells at 20 uM incubated for 48 hrs by flow cytometric analysis (reference value: 0.95%); format: functional
HT-1080 [41] = test: Induction of cell cycle arrest in human HT1080 cells assessed accumulation at G2 phase incubated for 24 hrs by flow cytometric analysis; format: functional, cell-based

T1 sequence (O75874 whole entry): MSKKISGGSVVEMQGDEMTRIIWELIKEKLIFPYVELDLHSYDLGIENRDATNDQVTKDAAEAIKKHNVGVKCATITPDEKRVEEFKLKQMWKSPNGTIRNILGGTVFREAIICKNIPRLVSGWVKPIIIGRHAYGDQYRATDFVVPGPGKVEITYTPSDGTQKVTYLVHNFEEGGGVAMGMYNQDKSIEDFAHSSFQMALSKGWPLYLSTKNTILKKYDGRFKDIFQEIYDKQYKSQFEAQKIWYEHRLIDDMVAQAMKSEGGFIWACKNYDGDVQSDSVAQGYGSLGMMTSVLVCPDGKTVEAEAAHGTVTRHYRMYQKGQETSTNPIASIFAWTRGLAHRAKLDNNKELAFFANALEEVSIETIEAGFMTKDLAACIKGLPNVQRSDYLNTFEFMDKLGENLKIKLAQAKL
T2 sequence (O75874 2-414 R132C limits assumed): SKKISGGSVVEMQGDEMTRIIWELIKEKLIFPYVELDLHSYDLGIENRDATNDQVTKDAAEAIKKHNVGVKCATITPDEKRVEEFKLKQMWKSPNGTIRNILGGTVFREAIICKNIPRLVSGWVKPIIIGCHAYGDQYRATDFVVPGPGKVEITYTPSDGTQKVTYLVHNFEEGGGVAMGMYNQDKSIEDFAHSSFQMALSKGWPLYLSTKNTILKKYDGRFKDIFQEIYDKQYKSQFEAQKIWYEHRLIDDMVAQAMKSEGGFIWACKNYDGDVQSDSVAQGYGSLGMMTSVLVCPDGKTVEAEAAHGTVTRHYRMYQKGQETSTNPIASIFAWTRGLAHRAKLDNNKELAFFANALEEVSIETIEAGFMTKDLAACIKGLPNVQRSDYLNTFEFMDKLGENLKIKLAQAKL
Chain of Isocitrate dehydrogenase [NADP] cytoplasmic (Homo sapiens), O75874 [R132C] (O75874 whole entry R132C): as the sequence (O75874 whole entry) above, with R132C counted along it
T3 sequence (O75874 2-414 R132H limits assumed): as the sequence (O75874 2-414 R132C limits assumed) above, with C131H counted along it
Chain of Isocitrate dehydrogenase [NADP] cytoplasmic (Homo sapiens), O75874 [R132H] (O75874 whole entry R132H): as the sequence (O75874 whole entry) above, with R132H counted along it

In the case of `C=CC(C)(C)c1cc(/C=C/C(=O)c2ccc(O)cc2)c(OC)cc1O` [LICOAGROCHACONE A], the inhibition [1] is reported as “inactive”, the inhibition [2] is reported as “Active” and the Ratio (Homo sapiens) is reported as 3. For the same molecule, the Kd [3] was > 50 µM, the Kd [4] was 2.81 µM and the Kd [5] was 12.8 µM. The Activity [6] was “Active”, the Activity [7] was “inactive” and the IC50 [8] was > 100 µM. For the same molecule, the IC50 [9] was 5.18 µM, the IC50 [10] was 76.9 µM and the Activity (HT-1080 [11]) was “Dose-dependent effect”. The IC50 (HT-1080 [11]; HT-1080, 48 h) was 10.8 µM, the IC50 [12] was > 50 µM and the IC50 (U-87 MG) was > 50 µM. For the same molecule, the inhibition (HT-1080 [13]) was “Dose-dependent effect”, the “inhibition (INH)” value (HT-1080 [13]) was >50% and the inhibition (HT-1080 [14]) was “Dose-dependent effect”. For the same molecule, the inhibition (HT-1080 [15]) was “Dose-dependent effect”, the inhibition (HT-1080 [16]) was “Dose-dependent effect” and the inhibition (HT-1080 [17]) was “Dose-dependent effect”. The inhibition (HT-1080 [18]) was “Dose-dependent effect”, the inhibition (HT-1080 [19]) was “Dose-dependent effect” and the Activity (HT-1080 [20]) was 35.93%. For the same molecule, the Activity (HT-1080 [21]) was 43.13%, the Activity (HT-1080 [22]) was 20.94% and the Activity (HT-1080 [23]) was 21.99%. For the same molecule, the Activity (HT-1080 [24]) was 45.83%, the Activity (HT-1080 [25]) was 24.18% and the Activity (HT-1080 [26]) was 24.76%. The Activity (HT-1080 [27]) was 41.29%, the Activity (HT-1080 [28]) was 33.95% and the viability at 5 µM (HT-1080 [29]) was 80.5%. For the same molecule, the Activity (HT-1080 [30]) was 1.26%, the Activity (HT-1080 [31]) was 15.2% and the Activity (HT-1080 [32]) was 3.13%. For the same molecule, the viability at 10 µM (HT-1080 [33]) was 64.1%, the Activity (HT-1080 [34]) was 4.97% and the Activity (HT-1080 [35]) was 26.6%. It also gave an Activity (HT-1080 [36]) of 4.4%, a viability at 20 µM (HT-1080 [37]) of 42% and an Activity (HT-1080 [38]) of 0.82%. The Activity (HT-1080 [39]) was 54.4%, the Activity (HT-1080 [40]) was 2.79% and the Activity (HT-1080 [41]) was “Dose-dependent effect”.
